Reference: a melting point compilation (Tetko et al.; mined from patent text by program, amines drawn as free bases though some values may be those of a salt)

Row | Compound | melting point
1 | Cc1ccccc1NC(=O)Nc1ccc(C(=O)N2CCCCc3ccccc32)cc1 | 182 °C
2 | O=C(CNC(=O)OCc1ccccc1)OCc1ccccc1 | 72 °C
3 | Cc1oc(NC(=O)CCl)c(C#N)c1C | 114 °C
4 | CC(=O)OC1CC(C)(C)N(OC(=NC2CCCCC2)N(C(=O)c2ccccc2)C2CCCCC2)C(C)(C)C1 | 147 to 152 °C
5 | O=C(Cc1ccncc1)NC(Cc1c[nH]c2ccccc12)C(O)CCc1cc(C(F)(F)F)cc(C(F)(F)F)c1 (stereo unspecified) | 213 to 214 °C
6 | CCOC(=O)C(=CNc1ccc(F)c(-c2ccncc2)n1)C(=O)OCC | 140 to 141 °C
7 | O=C(Cn1nc(-c2ccccc2O)nc1-c1ccccc1O)NCC(O)CO (stereo unspecified) | 180 to 181 °C
8 | COC(=O)c1ccc(O)c(N)c1C(=O)OC | 112 to 113 °C
9 | N#CCON=C(C(=O)O)c1csc(NC(c2ccccc2)(c2ccccc2)c2ccccc2)n1 | 180 °C
10 | O=C1CCCc2cc(Sc3cccc(F)c3)ccc21 | 66.2 to 66.7 °C
11 | O=CNc1cccc2c1SC1=NCCN12 | 217 °C
12 | CCCCS(=O)(=O)c1cn(C)c2ccccc2c1=O | 107 to 108 °C
13 | O=C(OCCOCn1cnc2c(Cl)nc(Cl)nc21)c1ccccc1 | 121 to 125 °C
14 | CC(C)CCC(=O)Nc1c(C(O)(C(F)(F)F)C(F)(F)F)ccc2ccccc12 | 62 to 63 °C
15 | CC(C)(C)CCP1C(O)C(O)P(CCC(C)(C)C)C(O)C1O (stereo unspecified) | 186 to 210 °C
16 | Cn1cc2c(CO)c(Br)ccc2n1 | 123 to 125 °C
17 | CCOC(=O)CN(CC(=O)OCC)c1ccc(C=O)c(O)c1 | 190 °C
18 | CCCCOC(=O)c1ccc(F)nc1N | 132 to 134 °C
19 | C=C(C)OC1OC(n2cc(C)c(=O)n(CC(=O)c3ccccc3)c2=O)CC1OC(=O)c1ccccc1 (stereo unspecified) | 112 to 113 °C
20 | CC1(C)CON(Cc2ccc(NC(=O)Cc3ccccc3C(=O)O)cc2)C1=O | 164 to 166 °C
21 | COC(=O)C1(C)OCC(c2ccccc2)(c2ccccc2)CO1 | 116 °C
22 | CS(=O)(=O)c1ccc(C(Cc2cccc(F)c2)C(=O)Nc2cnc(CO)cn2)cc1 (stereo unspecified) | 82.8 to 98.7 °C
23 | Cc1csc(N)c1S(N)(=O)=O | 142 to 144 °C
24 | Fc1ccc(C#Cc2ccnc(Cl)n2)cc1 | 125 to 126 °C
25 | CCCCCCCCCCCCN1C(C)(C)CC(O)CC1(C)C | 41 to 42 °C
26 | CNC(=O)c1ccc(-c2ccc(NC(=O)NCc3cccnc3)cc2)nc1NCc1ccncc1 | 218 to 219 °C

Row | Compound | melting point
27 | O=C(N(Cc1cccnc1)c1ccc(Cl)cc1)C(F)(F)F | 80 to 81 °C
28 | CC1(O)CC(=O)OC(C=Cc2cccc(OCc3ccccc3)c2)C1 (stereo unspecified) | 122 to 124 °C
29 | O=C(NC/C=C\COc1cc(CN2CCCC2)ccn1)c1ccc[nH]1 | 124 to 127 °C
30 | CCc1c(Cc2[nH]c(C(=O)OCc3ccccc3)c(C)c2CCCO)[nH]c(Cc2[nH]c(C(=O)OCc3ccccc3)c(C)c2CCCO)c1CC | 172 to 173 °C
31 | CCNS(=O)(=O)/C=C/C1=C(C)NC(C)=C(C(=O)OC(C)C)C1c1cccc([N+](=O)[O-])c1 (stereo unspecified) | 187 to 189 °C
32 | CC(=O)Nc1nc(CCc2ccc(NC(=N)N)cc2)c(C(=O)N2CCN(C(C)=O)CC2)s1 | 206 to 208 °C
33 | C=CC(=O)Oc1cccc(-c2ccc3cc(OC(=O)C=C)ccc3c2)c1 | 75.4 °C
34 | O=P(O)(O)C1(P(=O)(O)O)CCCN1 | 80 °C
35 | CCOC(=O)CC(=O)NS(=O)(=O)c1ccc([N+](=O)[O-])cc1 | 97 °C
36 | C=CCN1CCCN(c2cc(Cl)ccc2C)C1=S | 71 to 72 °C
37 | CCOC(=O)C1(O)C=CC(N=Nc2ccccc2)=CC1 (stereo unspecified) | 153 to 154 °C
38 | O=C1N=c2ccc(Cl)cc2=N1 | 320 °C
39 | CCOC(=O)CCCNC(=O)c1cc(Br)no1 | 72 to 73 °C
40 | Oc1nn(-c2ccc(Cl)c(Cl)c2)cc1-c1ccccc1 | 244 to 245 °C
41 | NS(=O)(=O)c1ncccc1C1=NOCC1 | 155 to 156 °C
42 | CCCCCCCOCC1OC1CO (stereo unspecified) | 50 to 52 °C
43 | OC[C@@H]1O[C@H](n2c(NC3CC3)nc3c(Br)c(Cl)c(Cl)cc32)[C@@H](O)[C@H]1O | 205 to 208 °C
44 | Nc1nc(C2CCN(C(=O)c3ccccc3)CC2)c2ccccc2n1 | 138 °C
45 | OC1CCNc2nc(Br)ccc21 (stereo unspecified) | 130 to 131 °C
46 | CCCCN(CCCC)C(=O)/C=C/c1ccc(Cn2c(-c3ccc(F)cc3)c(C)c3cc(O)ccc32)cc1 | 180 °C
47 | C[C@@H]1Cc2ccsc2[C@H](C)N1CCNS(=O)(=O)c1ccc(N)cc1 (relative stereo) | 126 to 131 °C
48 | Cc1cn(C)c2c1N(C(=O)CN1CCCC1)c1ccccc1NC2=O | 210 to 212 °C
49 | CC(C)N(Cc1ccc(C(F)(F)F)cc1)C(=O)C(Cl)Cl | 92 to 93 °C
50 | O=C(CCCCC(=O)Oc1ccc(C(=O)OCc2ccccc2)cc1)Oc1ccc(C(=O)OCc2ccccc2)cc1 | 93 to 93.5 °C
51 | CCC(=O)Cn1c(C)cn(N=Cc2cccnc2)c1=O | 183 to 184 °C
52 | COC(=O)C(O)(c1ccc(C)cc1)c1ccc(C)cc1 | 83 to 84 °C

Further lines, results first:

Row | melting point | Compound
53 | 131 to 132 °C | C=C1COc2ccc(C(C)=O)cc2C(Cc2ccccc2)(S(=O)(=O)c2ccccc2)C1 (stereo unspecified)
54 | 130 to 132 °C | COc1cc(C(=O)C#CC(=O)O)cc(OC)c1OC
55 | 235 to 237 °C | CC(c1oc2ccccc2c(=O)c1-c1cccc(F)c1)n1nc(-c2ccc(F)cc2O)c2c(N)ncnc21 (stereo unspecified)
56 | 103 to 104 °C | COc1cc(I)cc(OC)c1SC
57 | 259 °C | C#CCOc1cccc(OC)c1-c1nc2cnncc2[nH]1
58 | > 250 °C | O=C(O)Cn1c(=O)c(=O)[nH]c2ccc3ccc(-n4ccc(CN5CCc6ccccc6C5)c4)cc3c21
59 | 258 to 261 °C | CNc1ncc2c(-c3cccc(Cl)c3)cc(-c3cccc(CC(=O)O)c3)c(OC)c2n1
60 | 251 to 252 °C | CC1(C)CCc2[nH]cc(C(=O)Nc3ccc4c(c3)OCO4)c2C1=O
61 | 125 to 130 °C | O=C(c1cc(-c2ccc(Cl)c(Cl)c2)ccn1)N(O)Cc1ccccc1
62 | 195 to 197 °C | CC(=O)c1c(C)[nH]c(-c2cccc(C)c2)c1N
63 | 82 to 87 °C | CC(=O)N(CCc1nc(-c2ccccc2)oc1C)Cc1ccc(C[C@@H](C(=O)O)n2cccc2)cc1
64 | 222 to 234 °C | COC(=O)C1=C(C)NC(=O)NC1c1cccc(N)c1 (stereo unspecified)
65 | 118 °C | Cc1cc(-n2ccnc2)c2cccc(OCc3c(Cl)ccc(S(=O)(=O)N4CCC[C@H]4C(=O)NCCCNC(=O)c4ccc(C#N)cc4)c3Cl)c2n1
66 | 136 to 138 °C | CCOC(=O)Cn1c2c(c3c(Cl)c(Cl)ccc31)CCN(C(=O)OC(C)(C)C)CC2
67 | 169 to 171 °C | COc1cc(-c2ncn(-c3cc(OC)c(OC)c(OC)c3)c2-c2cc(OC)c(OC)c(OC)c2)cc(OC)c1OC
68 | 207 to 210 °C | O=C(O)c1cc(-c2ccc3occc3c2)nn(Cc2ccc(F)cc2)c1=O
69 | 114 to 116 °C | CCCc1cc(=O)oc2cc(OCCCN3CCN(c4ccccc4)CC3)ccc12
70 | 138 to 139 °C | CCOC(=O)c1cnn2ccc3c(c12)CCO3
71 | 179 to 181 °C | Cc1oc2ccccc2c1C(=O)NCc1ccc2c(Br)c(O)ccc2c1
72 | 29.9 to 30.8 °C | CCCCCCCCCCc1ccc2ccc(OC)cc2c1
73 | 142 to 144 °C | Cc1cc2c(s1)SCC1CC(=O)N(c3ccc(Cl)cc3)N=C21 (stereo unspecified)
74 | 147 °C | N#Cc1cnc(N)nc1-c1ccccc1
75 | 205 to 207 °C | COc1cc2cnc3c(c2cc1OC)Cc1c-3cc2c(c1CN(C)C)OCO2
76 | 154 to 156 °C | CCOC(=O)c1cc2c3n(ccc-2n1)CC=N3
77 | 99 to 101 °C | O=C1CCC(c2ccc(Cl)c(Cl)c2)c2ccccc21 (stereo unspecified)

Row | melting point | Compound
78 | 228 to 230 °C | O=C1CCC(N2Cc3c(OCc4ccc(CN5CC6CCC(C5)O6)cc4)cccc3C2=O)C(=O)N1 (stereo unspecified)
79 | 225 to 227 °C | CCc1nc2c(N)nc3c(c2n1CC(C)(C)OCCS(C)(=O)=O)CCCC3
80 | 192 to 196 °C | O=C(O)c1cc(Oc2ccc(Cl)cc2Cl)c(O)cc1Cl
81 | 144 to 146 °C | COc1nc(C)cnc1N(C(=O)OCC(C)C)S(=O)(=O)c1cccnc1-c1ccc(O)cc1
82 | 260 to 261 °C | COc1ccc(Oc2c(N)cc(C(=O)O)cc2S(N)(=O)=O)cc1
83 | 120 to 121 °C | Cc1ccc(Sc2nc(F)c(C#N)cc2F)cc1
84 | 123 to 126 °C | CSc1cccc(Oc2ncc(F)cc2C(=O)N[C@H]2CC[C@@H](CO)CC2)c1
85 | 156 to 159 °C | Cc1cc2c(s1)Oc1ccccc1N=C2N1CC2CCC(C1)N2C
86 | 94 to 97 °C | C=CC1OC(=O)c2c(Oc3nc(OC)cc(OC)n3)cccc21 (stereo unspecified)
87 | 131 to 133 °C | COc1ccc(C=CC(=O)O)cc1-c1cc2c(cc1OCc1cccc(O)c1)C(C)(C)CCC2(C)C
88 | 40 °C | COC(=O)CNc1cccc(C)c1
89 | 93 to 94 °C | CCc1nc(/C=C\c2cn(-c3ccccc3)nc2OCc2ccc(OCc3csc(N4CCCCC4)n3)c(OC)c2)cs1
90 | 248 to 253 °C | O=C(Nc1cccc2c(Cn3cnc4ccccc43)ccnc12)c1c(Cl)cccc1Cl
91 | 58.1 to 58.7 °C | CCC(=O)c1ccc(OC)c(OC(C)C)c1
92 | 245 to 247 °C | c1ccc2c(c1)CCc1c(N3CCN(Cc4c[nH]c5ncccc45)CC3)n[nH]c1-2
93 | 52 to 53 °C | COc1ccc(C(CBr)(OC)OC)cc1
94 | 178 to 182 °C | O=C(O)c1cccc(OCc2ccc3ccccc3n2)c1
95 | > 250 °C | CCc1ccc(Nc2nc3cc(NC(=O)c4ccc(OC)c(OC)c4)ccc3o2)cc1
96 | 230 to 235 °C | CCC1(O)C(=O)OCc2c1cc1n(c2=O)Cc2cc3cc(O)ccc3nc2-1 (stereo unspecified)
97 | 190 to 192 °C | Nc1ccc2ncnc(Nc3cccc(C(F)(F)F)c3)c2c1
98 | 125 to 126 °C | COc1ccc2ccccc2c1CN1CCC(=O)C(C(c2ccc(F)cc2)c2ccc(F)cc2)C1 (stereo unspecified)
99 | 156 to 157 °C | Cc1ccc(-c2oc(C(F)(F)F)nc2-c2ccccc2)cc1S(N)(=O)=O
100 | 124 to 126 °C | COc1ccc(C#Cc2cccc(CN(O)C(C)=O)c2)cc1
101 | 179 °C | COc1ccc(CNc2nc(-c3ccc(C(=O)O)cc3)nc3c2c2c(n3C(C)c3ccccc3)CCCC2)cc1Cl (stereo unspecified)
